Measurements published in patent EP0791004B1, “ACYLATED BENZYLGLYCOSIDES AS INHIBITORS OF SMOOTH MUSCLE CELL PROLIFERATION” (AMERICAN HOME PRODUCTS CORPORATION, priority 1994, dated 1996).

Assays:
normal human plasma = assay: Anticoagulant activity, partial thromboplastin time (APTT) assay; type: biochemical; conditions: human citrated plasma
Procedure: The anticlotting activity of the compounds of this invention was evaluated in a partial thromboplastin time (APTT) assay using normal human plasma collected from 5 donors according to the procedure of Fenichel et. al. (Clin. Chem. 1964, 10, 69). A BBL Fibrometer automatic precision coagulation timer utilizing a 0.3 mL probe was employed. An Ellagic acid activated partial thromboplastin was used for these experiments. This reagent was added to human citrated plasma equilibrated at 37 °C in a plastic well in the clot timer. Calcium at 37 °C was added, the clot timer was started and the time for fibrin clot formation (in seconds) was recorded. The effect of the compounds, added to plasma, over a concentration of 12.5 - 200 µg/mL was determined. […] An unfractionated heparin comparator was used over the concentration range of 1.25 - 10 µg/mL. Clotting tests at all concentrations were run in triplicate. Analysis of variance for a randomized block design was used to determine the significance of differences observed in the clotting times. […]

[1] = system: Porcine Smooth Muscle Cell; assay: Cytotoxicity, MTT assay; type: cell-based; conditions: up to 100 µg/mL; 24 h, medium without serum
Procedure: Briefly, cells were again grown in 24 well plates to 70 - 80 % confluency and, as before, serum deprived for 24 - 48 h prior to initiation of the experimental protocol. To insure that the MTT assay monitored toxicity rather than proliferation, cells were incubated with 100 µg/mL of drug in fresh medium without serum for 24 h at 37 °C in a humidified CO2 incubator. Upon completion of the compound treatment, MTT (3-[4,5-dimethylthiazol-2-yl]-2,5-diphenyltetrazolium bromide) indicator dye was added for 4 h at 37 °C. Cells were then lysed and aliquots from each well were transferred to a 96 well plate for analysis. Absorbance at 570 nm wavelength with a reference wavelength of 630 nm was recorded using an ELISA plate reader. Results were determined as percent viable using no drug (100% viable) and pre-solubilization (0% viable) standards.

| Compound | anticoagulant activity (APTT assay) (normal human plasma) | toxicity (MTT, percent viable) [1] |
| --- | --- | --- |
| CC(=O)OC[C@H]1O[C@H](O[C@H]2[C@H](OC(C)=O)[C@@H](OC(C)=O)[C@H](OCc3ccc(C)c(N)c3)O[C@@H]2COC(C)=O)[C@H](OC(C)=O)[C@@H](OC(C)=O)[C@@H]1OC(C)=O [Example 3, 5-(Hepta-O-acetyl-β-maltosyloxymethyl)-2-methylphenylamine] | no anticoagulant activity | no toxicity |
| CC(=O)Nc1cccc(C(=O)Nc2cc(CO[C@@H]3O[C@H](COC(C)=O)[C@@H](O[C@H]4O[C@H](COC(C)=O)[C@@H](OC(C)=O)[C@H](OC(C)=O)[C@H]4OC(C)=O)[C@H](OC(C)=O)[C@H]3OC(C)=O)ccc2C)c1 [Example 6, 3-Acetylamino-N-[5-(hepta-O-acetyl-β-D-maltosyloxymethyl)-2-methylphenyl]benzamide] | – | no toxicity |
| CCC(=O)Nc1cc(CO[C@@H]2O[C@H](COC(C)=O)[C@@H](O[C@H]3O[C@H](COC(C)=O)[C@@H](OC(C)=O)[C@H](OC(C)=O)[C@H]3OC(C)=O)[C@H](OC(C)=O)[C@H]2OC(C)=O)ccc1C [Example 11, N-[5-(Hepta-O-acetyl-β-D-maltosyloxymethyl)-2-methylphenyl]propionamide] | no anticoagulant activity | no toxicity |
| CCCCC(=O)Nc1cc(CO[C@@H]2O[C@H](COC(C)=O)[C@@H](O[C@H]3O[C@H](COC(C)=O)[C@@H](OC(C)=O)[C@H](OC(C)=O)[C@H]3OC(C)=O)[C@H](OC(C)=O)[C@H]2OC(C)=O)ccc1C [Example 12, Pentanoic Acid N-[5-(Hepta-O-acetyl-β-D-maltosyloxymethyl)-2-methylphenyl]amide] | no anticoagulant activity | no toxicity |
| CC(=O)OC[C@H]1O[C@H](O[C@H]2[C@H](OC(C)=O)[C@@H](OC(C)=O)[C@H](OCc3ccc(C)c(NC(=O)C4CC4)c3)O[C@@H]2COC(C)=O)[C@H](OC(C)=O)[C@@H](OC(C)=O)[C@@H]1OC(C)=O [Example 14, Cyclopropanecarboxylic Acid N-[5-(Hepta-O-acetyl-β-D-maltosyloxymethyl)-2-methylphenyl]amide] | – | no toxicity |
| CC(=O)OC[C@H]1O[C@H](O[C@H]2[C@H](OC(C)=O)[C@@H](OC(C)=O)[C@H](OCc3ccc(C)c(NC(=O)C4CCCC4)c3)O[C@@H]2COC(C)=O)[C@H](OC(C)=O)[C@@H](OC(C)=O)[C@@H]1OC(C)=O [Example 15, Cyclopentanecarboxylic Acid N-[5-(Hepta-O-acetyl-β-D-maltosyloxymethyl)-2-methylphenyl]amide] | – | no toxicity |
| CC(=O)OC[C@H]1O[C@H](O[C@H]2[C@H](OC(C)=O)[C@@H](OC(C)=O)[C@H](OCc3ccc(C)c(NC(=O)CCC4CCCC4)c3)O[C@@H]2COC(C)=O)[C@H](OC(C)=O)[C@@H](OC(C)=O)[C@@H]1OC(C)=O [Example 16, N-[5-(Hepta-O-acetyl-β-D-maltosyloxymethyl)-2-methylphenyl]-3-cyclopentylpropionamide] | – | no toxicity |
| CC(=O)OC[C@H]1O[C@H](O[C@H]2[C@H](OC(C)=O)[C@@H](OC(C)=O)[C@H](OCc3ccc(C)c(NS(=O)(=O)c4ccc(NS(C)(=O)=O)cc4)c3)O[C@@H]2COC(C)=O)[C@H](OC(C)=O)[C@@H](OC(C)=O)[C@@H]1OC(C)=O [Example 17, N-[5-(Hepta-O-acetyl-β-D-maltosyloxymethyl)-2-methylphenyl]-4-(methanesulfonylamino)benzenesulfonamide] | no anticoagulant activity | no toxicity |
